US11667649B2, “Heteroaromatic macrocyclic ether chemotherapeutic agents” (Nuvalent, Inc., priority 2020, dated 2023)

Key:
[1] = biological target: T1, ALK-wt kinase domain (Homo sapiens, UniProt Q9UM73); test: Biochemical kinase assay, ALK-wt; conditions: 2 mM ATP substrate solution, read-out: Ki^app ALK-wt
T1 construct: TRKA-wt (1 nM, BPS Bio, 40280) kinase domains in buffer; purchased Carna 08-518
Protocol: (§1) First, 250 nL of compound dissolved in DMSO (100-fold of the desired concentration) was dispensed into a 384-well plate. A 12.5 μL substrate solution containing ATP (2 mM) and fluorogenic phosphorylation substrate AQT0101 (26 μM for ALK and ROS1, AssayQuant) or AQT0104 (26 μM for TRKA, AssayQuant) in buffer (50 mM HEPES pH 7.5, 0.01% Brij-35, 0.5 mM EGTA, 10 mM MgCl2) was added and mixed thoroughly. Then, a 12.5 μL kinase solution containing ALK-wt (1.5 nM, Carna, 08-518), ALK ALK L1196M/G1202R (3 nM, SignalChem, A19-12NG), ROS1-wt (0.6 nM, Carna, 08-163), ROS1-G2032R (0.5 nM, SignalChem, R14-12BG), or TRKA-wt (1 nM, BPS Bio, 40280) kinase domains in buffer ([…] HEPES pH 7.5, 0.01% Brij-35, 2% glycerol, 0.4 mg/mL BSA, 0.5 mM EGTA, and 10 mM MgCl2) was added and mixed thoroughly. The plate was sealed and read by SpectraMax Paradigm at λ=485 nm every 2 minutes for 120 minutes at 30° C. Initial rates of reaction (v) were calculated from the change in fluorescence intensity over time during the initial, linear portion of the reaction. Finally, apparent inhibitory constants (Ki^app) were determined from regression of v and I (inhibitor concentration) to Morrison Equation (E=enzyme concentration): […]

[2] = biological target: T2, ALK L1196M/G1202R kinase domain (Homo sapiens, UniProt Q9UM73, G1202R/L1196M); test: Biochemical kinase assay, ALK L1196M/G1202R; conditions: 2 mM ATP substrate solution, read-out: Ki^app ALK-L1196M-G1202R
T2 construct: TRKA-wt (1 nM, BPS Bio, 40280) kinase domains in buffer; purchased SignalChem A19-12NG
Protocol: as §1

[3] = biological target: T3, ROS1-wt kinase domain (Homo sapiens, UniProt P08922); test: Biochemical kinase assay, ROS1-wt; conditions: 2 mM ATP substrate solution, read-out: Ki^app ROS1-wt
T3 construct: TRKA-wt (1 nM, BPS Bio, 40280) kinase domains in buffer; purchased Carna 08-163
Protocol: as §1

[4] = biological target: T4, ROS1-G2032R kinase domain (Homo sapiens, UniProt P08922, G2032R); test: Biochemical kinase assay, ROS1-G2032R; conditions: 2 mM ATP substrate solution, read-out: Ki^app ROS1-G2032R
T4 construct: TRKA-wt (1 nM, BPS Bio, 40280) kinase domains in buffer; purchased SignalChem R14-12BG
Protocol: as §1

[5] = biological target: T5, TRKA-wt kinase domain (Homo sapiens, UniProt P04629); test: Biochemical kinase assay, TRKA-wt; conditions: 2 mM ATP substrate solution, read-out: Ki^app TRKA-wt
T5 construct: TRKA-wt (1 nM, BPS Bio, 40280) kinase domains in buffer; purchased BPS Bio 40280
Protocol: as §1

| Ki [1] [nM] | Ki [2] [nM] | Ki [3] [nM] | Ki [4] [nM] | Ki [5] [nM] | Structure (SMILES) |
| --- | --- | --- | --- | --- | --- |
| < 50 | < 50 | < 50 | < 50 | 50 to 500 | C[C@H]1Oc2cc(cnc2N)-c2c(CC3CC3)nn(C)c2Cc2cn(C)nc2-c2ccc(F)cc21 [Compound 178] |
| < 50 | < 50 | < 50 | < 50 | 50 to 500 | Cc1nc2c(s1)Cc1nnn(CC3CC3)c1-c1cnc(N)c(c1)O[C@H](C)c1cc(F)ccc1-2 [Compound 114] |
| < 50 | < 50 | < 50 | < 50 | > 500 | C[C@H]1Oc2cc(cnc2N)-c2c(cnn2C2CCC2)Cc2cnn(C)c2-c2ccc(F)cc21 [Compound 5] |
| < 50 | < 50 | < 50 | < 50 | 50 to 500 | C[C@H]1Oc2cc(cnc2N)-c2c(cnn2C2COC2)Cc2cn(C)nc2-c2ccc(F)cc21 [Compound 139] |
| < 50 | < 50 | < 50 | < 50 | > 500 | C[C@H]1Oc2cc(cnc2N)-c2c(cnn2CC(F)F)Cc2cc(C(F)(F)F)nn2-c2ccc(F)cc21 [Compound 84] |
| < 50 | < 50 | < 50 | < 50 | 50 to 500 | CCn1cc2c(n1)-c1ccc(F)cc1[C@@H](C)Oc1cc(cnc1N)-c1c(cnn1CC1CC1)C2 [Compound 140] |
| < 50 | < 50 | < 50 | < 50 | 50 to 500 | C[C@H]1Oc2cc(cnc2N)-c2c(cnn2CC2CC2)Cc2cccnc2-c2ccc(F)cc21 [Compound 137] |
| < 50 | < 50 | < 50 | < 50 | 50 to 500 | COc1cc2n(n1)-c1ccc(F)cc1[C@@H](C)Oc1cc(cnc1N)-c1c(c(C)nn1CC1CC1)C2 [Compound 124] |
| < 50 | < 50 | < 50 | < 50 | 50 to 500 | CCn1ncc2c1-c1cnc(N)c(c1)O[C@H](C)c1cc(F)ccc1-c1ncoc1C2 [Compound 77] |
| < 50 | < 50 | < 50 | < 50 | 50 to 500 | C[C@H]1Oc2cc(cnc2N)-c2c(nn(C)c2C#N)Cc2cccnc2-c2ccc(F)cc21 [Compound 112] |
| < 50 | < 50 | < 50 | < 50 | > 500 | C[C@H]1Oc2cc(cnc2N)-c2c(C#N)noc2Cc2cn(C)nc2-c2ccc(F)cc21 [Compound 15] |

Further lines, the compound ahead of its results:

| Structure (SMILES) | Ki [1] [nM] | Ki [2] [nM] | Ki [3] [nM] | Ki [4] [nM] | Ki [5] [nM] |
| --- | --- | --- | --- | --- | --- |
| CCc1noc2c1-c1cnc(N)c(c1)O[C@H](C)c1cc(F)ccc1-c1nn(C)cc1C2 [Compound 19] | < 50 | < 50 | < 50 | < 50 | < 50 |
| CCn1ncc2c1-c1cnc(N)c(c1)OCc1cc(F)ccc1-c1nn(C)cc1C2 [Compound 49] | < 50 | 50 to 500 | < 50 | 50 to 500 | > 500 |
| C[C@H]1Oc2cc(cnc2N)-c2c(CC(F)F)noc2Cc2cn(C)nc2-c2ccc(F)cc21 [Compound 85] | < 50 | < 50 | < 50 | < 50 | > 500 |
| CC1Oc2cc(cnc2N)-c2c(nn(C)c2C#N)Cc2cnccc2-c2ccc(F)cc21 (stereo not shown) [Compound 59] | < 50 | > 500 | < 50 | 50 to 500 | 50 to 500 |
| CCc1snc2c1-c1cnc(N)c(c1)O[C@H](C)c1cc(F)ccc1-c1nn(C)cc1C2 [Compound 88] | < 50 | < 50 | < 50 | < 50 | 50 to 500 |
| C[C@H]1Oc2cc(cnc2N)-c2c(nnn2CC2CC2)Cc2cccnc2-c2ccc(F)cc21 [Compound 116] | < 50 | < 50 | < 50 | < 50 | 50 to 500 |
| Cc1nc2c(s1)Cn1ncc(C(F)F)c1-c1cnc(N)c(c1)O[C@H](C)c1cc(F)ccc1-2 [Compound 68] | < 50 | < 50 | < 50 | < 50 | 50 to 500 |
| CCn1nc(C)c2c1-c1cnc(N)c(c1)O[C@H](C)c1cc(F)ccc1-c1nn(C)cc1C2 [Compound 81] | < 50 | < 50 | < 50 | < 50 | 50 to 500 |
| CCn1ncc2c1-c1cnc(N)c(c1)O[C@H](C)c1cc(F)ccc1-c1nocc1C2 [Compound 99] | < 50 | < 50 | < 50 | < 50 | 50 to 500 |
| CCn1ncc2c1-c1cnc(N)c(c1)O[C@H](C)c1cc(F)ccc1-n1nc(Cl)cc1C2 [Compound 74] | < 50 | < 50 | < 50 | < 50 | < 50 |
| CCn1ncc2c1-c1cnc(N)c(c1)O[C@H](C)c1cc(F)ccc1-n1nc(C(F)(F)F)cc1C2 [Compound 52] | < 50 | < 50 | < 50 | < 50 | 50 to 500 |
| CCn1nnc2c1-c1cnc(N)c(c1)O[C@H](C)c1cc(F)ccc1-c1nn(C)cc1C2 [Compound 20] | < 50 | < 50 | < 50 | < 50 | 50 to 500 |
| C[C@H]1Oc2cc(cnc2N)-c2c(CC3CC3)cnn2Cc2cccnc2-c2ccc(F)cc21 [Compound 146] | < 50 | < 50 | < 50 | < 50 | 50 to 500 |
| C[C@H]1Oc2cc(cnc2N)-c2c(nn(C)c2CC2CC2)Cc2ccnn2-c2ccc(F)cc21 [Compound 177] | < 50 | < 50 | < 50 | < 50 | 50 to 500 |
| Cc1nn(CC2CC2)c2c1Cc1cccnc1-c1ccc(F)cc1[C@@H](C)Oc1cc-2cnc1N [Compound 135] | < 50 | < 50 | < 50 | < 50 | 50 to 500 |
| C[C@H]1Oc2cc(cnc2N)-c2c(cnn2CC2CC2)Cc2cn(C)nc2-c2ccc(F)cc21 [Compound 121] | < 50 | < 50 | < 50 | < 50 | 50 to 500 |
| CCc1nn(CC)c2c1Cc1cn(C)nc1-c1ccc(F)cc1[C@@H](C)Oc1cc-2cnc1N [Compound 158] | < 50 | < 50 | < 50 | < 50 | < 50 |
| CCn1ncc2c1-c1cnc(N)c(c1)OC(C)c1cc(F)ccc1-n1cncc1C2 (stereo not shown) [Compound 38] | < 50 | 50 to 500 | < 50 | < 50 | > 500 |
| C[C@H]1Oc2cc(cnc2N)-c2c(C#N)nn(C)c2Cc2cc(F)cnc2-c2ccc(F)cc21 [Compound 105] | < 50 | < 50 | < 50 | < 50 | > 500 |
| CCc1nsc2c1-c1cnc(N)c(c1)O[C@H](C)c1cc(F)ccc1-c1nn(C)cc1C2 [Compound 155] | < 50 | < 50 | < 50 | < 50 | < 50 |
| CCn1ncc2c1-c1cnc(N)c(c1)OCc1cc(F)ccc1-c1nc(C)sc1C2 [Compound 89] | < 50 | < 50 | < 50 | < 50 | > 500 |
| Cc1nc2c(s1)Cc1c(c(C#N)nn1C)-c1cnc(N)c(c1)O[C@H](C)c1cc(F)ccc1-2 [Compound 82] | < 50 | < 50 | < 50 | < 50 | 50 to 500 |
| CCn1ncc2c1-c1cnc(N)c(c1)OCc1cc(F)ccc1-n1nc(C(F)(F)F)cc1C2 [Compound 92] | < 50 | < 50 | < 50 | < 50 | > 500 |
| C[C@H]1Oc2cc(cnc2N)-c2c(c(Cl)nn2CC(F)F)Cc2cn(C)nc2-c2ccc(F)cc21 [Compound 83] | < 50 | < 50 | < 50 | < 50 | > 500 |
